Assay results reported in ChEMBL document CHEMBL5584227, “Piezo1 and its inhibitors: Overview and perspectives” (Eur J Med Chem, 2024).
Values belong to the molecule of their own block, whether it stands above or below them.

Columns and labels:
[1] = biological target: Piezo1 (Homo sapiens); assay: Antagonist activity at human Piezo1
[2] = biological target: Piezo1 (Homo sapiens); assay: Inhibition of human Piezo1 assessed as intracellular calcium influx measured for 30 mins by Fluo-4 AM dye based fluorescence analysis
[3] = biological target: Amyloid-beta precursor protein (Homo sapiens, UniProt P05067); assay: Inhibition of amyloid beta (1 to 42) (unknown origin) aggregation incubated for 24 hrs by ThT assay
[4] = biological target: Piezo1 (Homo sapiens); assay: Antagonist activity at Yoda1-activated human Piezo1 in HUVECs assessed as inhibition of calcium influx by calcium fluorescence assay

Sequence of Amyloid-beta precursor protein (P05067 whole entry): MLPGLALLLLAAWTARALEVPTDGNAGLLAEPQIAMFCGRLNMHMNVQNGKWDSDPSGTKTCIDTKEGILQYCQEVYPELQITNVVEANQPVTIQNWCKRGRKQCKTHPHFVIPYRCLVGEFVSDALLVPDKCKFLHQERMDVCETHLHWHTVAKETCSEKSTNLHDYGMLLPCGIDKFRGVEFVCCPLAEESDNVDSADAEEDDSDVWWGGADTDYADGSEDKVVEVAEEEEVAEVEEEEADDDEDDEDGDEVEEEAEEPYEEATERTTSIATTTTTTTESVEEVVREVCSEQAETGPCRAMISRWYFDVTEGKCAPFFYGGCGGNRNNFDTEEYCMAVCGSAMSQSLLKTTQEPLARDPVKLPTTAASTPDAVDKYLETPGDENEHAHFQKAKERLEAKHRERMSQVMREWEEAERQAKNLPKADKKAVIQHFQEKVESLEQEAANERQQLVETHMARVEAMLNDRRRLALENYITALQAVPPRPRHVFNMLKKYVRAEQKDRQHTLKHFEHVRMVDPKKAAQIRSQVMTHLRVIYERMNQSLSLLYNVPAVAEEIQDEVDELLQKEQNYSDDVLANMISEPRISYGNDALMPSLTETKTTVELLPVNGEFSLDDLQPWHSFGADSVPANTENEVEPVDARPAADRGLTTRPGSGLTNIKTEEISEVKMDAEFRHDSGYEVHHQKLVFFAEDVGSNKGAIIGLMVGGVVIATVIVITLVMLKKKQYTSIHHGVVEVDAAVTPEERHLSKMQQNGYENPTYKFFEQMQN

IC50 [1]: 1300 nM
Compound: Clc1cccc(Cl)c1CSc1nnc(-c2ccc[nH]2)o1

IC50 [2]: 1110 nM
Compound: C[C@@H]1O[C@@H](O[C@H]2[C@H](OC(=O)[C@]34CCC(C)(C)C[C@H]3C3=CC[C@@H]5[C@@]6(C)C[C@H](O)[C@@H]7O[C@@H]8O[C@H](CO)[C@@H](O)[C@H](O)[C@H]8O[C@@H]8OC[C@H](O)[C@H](O)[C@H]8OC(=O)CC(C)(O)CC(=O)OC[C@@]7(C)[C@@H]6CC[C@@]5(C)[C@]3(C)CC4)OC[C@H](O)[C@@H]2O)[C@H](O)[C@H](O[C@@H]2OC[C@@H](O)[C@H](O)[C@H]2O)[C@H]1O (some centres undefined)

IC50 [3]: 28.3 µM
Compound: CCCCCCCCCCCCCCCCC(=O)O [HEPTADECANOIC ACID]

IC50 [4]: 1370 nM
Compound: O=C(/C=C/c1ccc(O)c2c1[C@H](C(=O)O[C@H](Cc1ccc(O)c(O)c1)C(=O)O)[C@@H](c1ccc(O)c(O)c1)O2)O[C@H](Cc1ccc(O)c(O)c1)C(=O)O
